Where a SMILES comes first, the peptide text is derived from it. The star is where a group is joined. Cbz = O=C(OCc1ccccc1)*
Experiments:
[1] = system: proteasome; experiment: Role of the proteasome in ARR stability, immunoblot of protoplasts; type: cell-based, Arabidopsis; conditions: 10 μM MG132, 3 hours
[2] = system: dark-grown, wild-type seedlings; conditions: increasing concentrations of t-zeatin
Experimental: (§1) Cytokinin Growth and Molecular Response Analyses. Hypocotyl and root growth analyses were performed according to known methods (Argyros, et al. (2008) Plant Cell 20(8):2102-2116) and hypocotyl and root lengths were measured using ImageJ software (version 1.32; National Institutes of Health). Root meristem size was determined via established methods (Perilli & Sabatini (2010) Methods Mol. Biol. 655:177-187). The apical meristem was visualized by bright field microscopy, with tissue sectioning, fixation, and staining performed according to known methods (Chiang, et al. (2012) Plant Physiol. 160(1):332-348). Total RNA isolation, cDNA production, and quantitative RT-PCR (qRT-PCR) were performed via established methods (Argyros, et al. (2008) supra). Transcript abundances were calculated using the comparative CT method, with 13-TUB3 (At5g62700) as the normalized control.
(§2) Plant Growth Conditions and Cytokinin Treatment. Seeds were surface-sterilized and cold-treated for 3 days in the dark at 4° C. to ensure uniform germination before being moved into the light. For molecular and physiological assays, seedlings were grown on medium containing 1× Murashige and Skoog (MS) salts with vitamins (Research Products International Corp.), 1% sucrose, and 0.8% phytoagar (Research Products International Corp.) at 22° C. under continuous white light (50 μE·m^−2·s^−1) unless specified otherwise. […]

[3] = system: ARR7 and ARR15; conditions: wild-type plants, one hour treatment with 100 nM t-zeatin, qRT-PCR
Experimental: as §1, §2

Row | SMILES | protein level of ARR1 ([1]; protoplasts from ARR1-HA overexpression line) | protein level of ARR12 ([1]; protoplasts from ARR12-Myc overexpression line) | hypocotyl elongation [2] | induction of ARR7 and ARR15 expression [3]
1 | CC(C)C[C@@H](C=O)NC(=O)[C@H](CC(C)C)NC(=O)[C@H](CC(C)C)NC(=O)OCc1ccccc1 [MG132] (Cbz-Leu-Leu-Leu-aldehyde) | increased | increased | – | –
2 | C/C(=C\CNc1ncnc2[nH]cnc12)CO [t-zeatin, 6-(4-hydroxy-3methylbut-trans-2-enylamino) purine] | – | – | inhibition of hypocotyl elongation | two- to four-fold

Source: patent publication US9796985B2, “Compositions and method for modulating the sensitivity of plants to cytokinin” (Trustees of Dartmouth College, priority 2013, dated 2017)
